pEC50: −log10 of the molar value.
Experiments:
[1] = molecular target: T1, hT1R2/hT1R3 sweet receptor expressed in an HEK293 cell line (Homo sapiens, UniProt Q7RTX0+Q8TE23); assay: In vitro hT1R2/hT1R3 sweet taste receptor activation assay (FLIPR, dose response); format: cell-based; conditions: read-out: EC50 for activation of a hT1R2/hT1R3 sweet receptor
T1 construct: expressed in transfected cells; host or cells: HEK293 derivative, clone S-9
T1 sequence (Q8TE23 20-839): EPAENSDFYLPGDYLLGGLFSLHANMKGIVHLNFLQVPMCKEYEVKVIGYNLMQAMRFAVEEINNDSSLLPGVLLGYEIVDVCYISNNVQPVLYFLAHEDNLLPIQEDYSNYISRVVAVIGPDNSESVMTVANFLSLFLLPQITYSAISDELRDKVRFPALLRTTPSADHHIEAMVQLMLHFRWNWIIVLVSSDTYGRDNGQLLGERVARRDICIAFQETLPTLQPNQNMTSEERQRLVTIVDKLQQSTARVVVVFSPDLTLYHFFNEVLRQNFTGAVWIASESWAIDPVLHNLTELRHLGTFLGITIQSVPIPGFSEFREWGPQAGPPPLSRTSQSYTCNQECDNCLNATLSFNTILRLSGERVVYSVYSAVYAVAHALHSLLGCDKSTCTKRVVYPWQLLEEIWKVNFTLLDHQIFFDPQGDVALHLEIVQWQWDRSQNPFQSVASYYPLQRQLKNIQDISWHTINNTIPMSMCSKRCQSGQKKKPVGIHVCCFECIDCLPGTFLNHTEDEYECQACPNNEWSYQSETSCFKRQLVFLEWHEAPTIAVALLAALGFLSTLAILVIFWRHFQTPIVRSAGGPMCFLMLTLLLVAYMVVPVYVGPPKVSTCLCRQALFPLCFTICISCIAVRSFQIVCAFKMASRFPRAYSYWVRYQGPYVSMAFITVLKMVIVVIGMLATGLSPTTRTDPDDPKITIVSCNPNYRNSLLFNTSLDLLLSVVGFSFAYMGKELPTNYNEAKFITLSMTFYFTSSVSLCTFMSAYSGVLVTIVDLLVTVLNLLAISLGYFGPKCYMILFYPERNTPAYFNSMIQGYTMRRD
T1 sequence (Q7RTX0 21-852): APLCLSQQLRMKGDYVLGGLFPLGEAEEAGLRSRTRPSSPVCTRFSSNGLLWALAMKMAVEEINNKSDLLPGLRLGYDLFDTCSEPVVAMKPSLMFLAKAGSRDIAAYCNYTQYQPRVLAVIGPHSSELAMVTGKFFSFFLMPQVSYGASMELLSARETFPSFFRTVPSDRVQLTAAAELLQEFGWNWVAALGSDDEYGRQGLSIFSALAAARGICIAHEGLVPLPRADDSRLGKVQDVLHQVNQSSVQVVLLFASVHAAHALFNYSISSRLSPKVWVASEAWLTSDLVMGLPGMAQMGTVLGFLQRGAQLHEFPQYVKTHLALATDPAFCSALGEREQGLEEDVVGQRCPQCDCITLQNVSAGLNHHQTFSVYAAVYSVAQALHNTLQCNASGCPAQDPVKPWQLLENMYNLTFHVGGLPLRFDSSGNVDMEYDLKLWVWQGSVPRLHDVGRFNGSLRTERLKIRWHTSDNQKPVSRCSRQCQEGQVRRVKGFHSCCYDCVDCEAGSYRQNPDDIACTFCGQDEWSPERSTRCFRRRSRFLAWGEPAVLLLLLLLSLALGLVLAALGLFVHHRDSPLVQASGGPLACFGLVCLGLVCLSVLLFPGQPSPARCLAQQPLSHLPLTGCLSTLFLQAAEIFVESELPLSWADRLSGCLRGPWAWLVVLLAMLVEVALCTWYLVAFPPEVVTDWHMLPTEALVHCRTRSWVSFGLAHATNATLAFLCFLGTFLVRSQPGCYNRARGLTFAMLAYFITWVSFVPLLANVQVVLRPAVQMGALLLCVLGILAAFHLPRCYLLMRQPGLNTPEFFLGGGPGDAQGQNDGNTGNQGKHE
Description: An HEK293 cell line derivative (see Chandrashekar, J., Mueller, K. L., Hoon, M. A., Adler, E., Feng, L., Guo, W., Zuker, C. S., Ryba, N. J.,. Cel,l 2000, 100, 703-711.) that stably expresses Gα15 and hT1R2/hT1R3 (see Li, X., Staszewski, L., Xu, H., Durick, K., Zoller, M., Adler, E. Proc Natl Acad Sci USA 2002, 99, 4692-4696, and PCT Publication No. WO 03/001876) was used to identify compounds with sweet taste enhancing properties. These references are hereby incorporated herein by reference for their methods of preparing and maintaing the cell lines discussed below, and for their methods for screeing compounds that inhibit the biological receptors.
Compounds covered in this document were initially selected based on their activity on the hT1R2/hT1R3—HEK293-Gα15 cell line (Li, et al. vide supra). Activity was determined using an automated fluorometric imaging assay on a FLIPR instrument (Fluorometric Intensity Plate Reader, Molecular Devices, Sunnyvale, Calif.) (designated FLIPR assay). Cells from one clone (designated S-9 cells) were seeded into 384-well plates (at approximately 50,000 cells per well) in a medium containing DMEM Low Glucose (Invitrogen, Carlsbad, Calif.), 10% dialyzed fetal bovine serum (Invitrogen, Carlsbad, Calif.), 100 Units/ml Penicillin G, and 100 μg/ml Streptomycin (Invitrogen, Carlsbad, Calif.) (Li, et al. vide supra) see also World Patent No. WO 03/001876 A2). S-9 cells were grown for 24 hours at 37° C. S-9 cells were then loaded with the calcium dye Fluo-3AM (Molecular Probes, Eugene, Oreg.), 4 μM in a phosphate buffered saline (D-PBS) (Invitrogen, Carlsbad, Calif.), for 1 hour at room temperature. After replacement with 25 μl D-PBS, stimulation was performed in the FLIPR instrument and at room temperature by the addition of 25 μl D-PBS supplemented with different stimuli at concentrations corresponding to twice the desired final level. Receptor activity was quantified by determining the maximal fluorescence increases (using a 480 nm excitation and 535 nm emission) after normalization to basal fluorescence intensity measured before stimulation.
For dose-responses analysis, stimuli were presented in duplicates at 10 different concentrations ranging from 60 nM to 30 μM. Activities were normalized to the response obtained with 400 mM D-fructose, a concentration that elicits maximum receptor response. EC50s were determined using a non-linear regression algorithm (using a Senomyx, Inc. software), where the Hill slope, bottom asymptotes and top asymptotes were allow to vary. Identical results were obtained when analyzing the dose-response data using commercially available software for non-linear regression analysis such as GraphPad PRISM (San Diego, Calif.).

Row | melting point | pEC50 [1] | Structure (SMILES)
1 | 80.5 to 81.5 °C | 6.82 | CC(C)Oc1ccc(NC(=S)NCc2ccsc2)cc1 [Example 3, 1-(4-Isopropoxyphenyl)-3-(thiophen-3-ylmethyl)thiourea]
2 | 104 to 105 °C | 5.53 | COc1ccc(CNc2ccccc2C)cc1O [Example 12, 5-((o-toluidino)methyl)-2-methoxyphenol]
3 | 89 to 90 °C | 6.64 | CC(C)Oc1ccc(NC(=S)NCc2ccoc2)cc1 [Example 4, 1-(furan-3-ylmethyl)-3-(4-isopropoxyphenyl)thiourea]
